Test results reported in patent publication US9701689B2, “Substituted pyridines and pyridazines as CCR10 receptor inhibitors” (KYOWA HAKKO KIRIN CO., LTD., priority 2012, dated 2017).

Molecular target: T1, human CCR10 (Homo sapiens, UniProt P46092)
T1 construct: expressed in transfected cells; host or cells: KJMGER8 cells (Namalwa cell-derived line), beta-estradiol-induced; hCCR10G16 cells
T1 sequence (P46092 1-362): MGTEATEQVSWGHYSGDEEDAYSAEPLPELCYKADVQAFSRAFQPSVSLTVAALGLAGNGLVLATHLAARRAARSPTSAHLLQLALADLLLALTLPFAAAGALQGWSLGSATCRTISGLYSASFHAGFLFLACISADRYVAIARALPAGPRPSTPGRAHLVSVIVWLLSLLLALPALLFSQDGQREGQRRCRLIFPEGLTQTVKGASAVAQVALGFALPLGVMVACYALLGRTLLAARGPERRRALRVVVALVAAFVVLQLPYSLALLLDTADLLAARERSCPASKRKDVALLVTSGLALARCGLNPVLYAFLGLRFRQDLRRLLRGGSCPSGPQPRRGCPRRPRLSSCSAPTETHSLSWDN
Assay: CCR10 antagonistic effect: calcium assay of human CCR10 (CTACK-induced increase of intracellular calcium in hCCR10G16 cells)
Assay type: cell-based
Conditions: at a concentration of not more than 1000 nmol/L; human CCR10-expressing hCCR10G16 cells, 300 nmol/L CTACK added; read-out: inhibition of increase in the calcium ion concentration
In short: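 Inhibition of CTACK-evoked calcium flux (max minus min Fluo-3 fluorescence over ~5 min, FDSS) was calculated against control in β-estradiol-induced human CCR10/Gα16 KJMGER8 cells, after 30 min compound preincubation at 37 °C; CTACK added from a 300 nmol/L solution.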

Row | SMILES | inhibition at up to 1 µM
1 | COc1ccc(Nc2c(C(=O)N3CCC(c4ccc(F)cc4)CC3)cnc(S(N)(=O)=O)c2Cl)cc1F [Compound 32, 3-chloro-4-(3-fluoro-4-methoxyphenylamino)-5-[4-(4-fluorophenyl)piperidine-1-carbonyl]pyridine-2-sulfonamide] | ≥ 50%
2 | Cc1cc(F)ccc1Nc1c(C(=O)N2CCC(c3ccc(F)cc3)CC2)cnc(S(=O)(=O)N2C(=O)OCC2(C)C)c1Cl [Compound 187, 3-{3-chloro-4-(4-fluoro-2-methylphenylamino)-5-[4-(4-fluorophenyl)piperidine-1-carbonyl]pyridin-2-ylsulfonyl}-4,4-dimethyloxazolidin-2-one] | ≥ 50%
3 | CCCNC(=O)NS(=O)(=O)c1cc(Nc2ccc(F)cc2C)c(C(=O)N2CCC(c3ccc(F)cc3)CC2)cn1 [Compound 168, 4-(4-fluoro-2-methylphenylamino)-5-[4-(4-fluorophenyl)piperidine-1-carbonyl]-N-(propylcarbamoyl)pyridine-2-sulfonamide] | ≥ 50%
4 | Cc1cc(F)ccc1Nc1c(C(=O)N2CCC(c3ccc(F)cc3)CC2)cnc(S(=O)(=O)N2CCC(N)CC2)c1Cl [Compound 184, [6-(4-aminopiperidin-1-ylsulfonyl)-5-chloro-4-(4-fluoro-2-methylphenylamino)pyridin-3-yl][4-(4-fluorophenyl)piperidin-1-yl]methanone] | ≥ 50%
5 | COc1ccc(Nc2cc(S(N)(=O)=O)ncc2C(=O)N2CCC(c3ccc(F)cc3)CC2)cc1C [Compound 88, 5-[4-(4-fluorophenyl)piperidine-1-carbonyl]-4-(4-methoxy-3-methylphenylamino)pyridine-2-sulfonamide] | ≥ 50%
6 | Cc1cccc(Nc2c(C(=O)N3CCC(C(N)=O)(c4ccccc4)CC3)cnc(S(N)(=O)=O)c2Cl)c1 [Compound 203, 1-[5-chloro-6-sulfamoyl-4-(m-tolylamino)nicotinoyl]-4-phenylpiperidine-4-carboxamide] | ≥ 50%
7 | COc1ccc(Nc2cc(S(N)(=O)=O)ncc2C(=O)N2CCC(c3ccc(F)cc3)CC2)cc1 [Compound 84, 5-[4-(4-fluorophenyl)piperidine-1-carbonyl]-4-(4-methoxyphenylamino)pyridine-2-sulfonamide] | ≥ 50%
8 | Cc1cc(F)ccc1Nc1cc(S(=O)(=O)NC(=O)OC(C)C)ncc1C(=O)N1CCC(c2ccc(F)cc2)CC1 [Compound 175, isopropyl 4-(4-fluoro-2-methylphenylamino)-5-[4-(4-fluorophenyl)piperidine-1-carbonyl]pyridin-2-ylsulfonylcarbamate] | ≥ 50%
9 | Cc1cc(F)ccc1Nc1cc(S(=O)(=O)Nc2ncccn2)ncc1C(=O)N1CCC(c2ccc(F)cc2)CC1 [Compound 145, 4-(4-fluoro-2-methylphenylamino)-5-[4-(4-fluorophenyl)piperidine-1-carbonyl]-N-(pyrimidin-2-yl)pyridine-2-sulfonamide] | ≥ 50%
10 | Cc1ccc(Nc2c(C(=O)N3CCC(c4ccc(F)cc4)CC3)cnc(S(=O)(=O)Nc3ccon3)c2C)c(F)c1 [Compound 235, 4-(2-fluoro-4-methylphenylamino)-5-[4-(4-fluorophenyl)piperidine-1-carbonyl]-N-(isoxazol-3-yl)-3-methylpyridine-2-sulfonamide] | ≥ 50%
11 | NS(=O)(=O)c1ncc(C(=O)N2CCC(c3ccc(F)cc3)CC2)c(Nc2cccc(Br)c2)c1Cl [Compound 319, 4-(3-bromophenylamino)-3-chloro-5-[4-(4-fluorophenyl)piperidine-1-carbonyl]pyridine-2-sulfonamide] | ≥ 50%
12 | Cc1cc(F)ccc1Nc1cc(S(=O)(=O)N2CCCC2C(=O)O)ncc1C(=O)N1CCC(c2ccc(F)cc2)CC1 (centres unmarked) [Compound 120, 1-{4-(4-fluoro-2-methylphenylamino)-5-[4-(4-fluorophenyl)piperidine-1-carbonyl]pyridin-2-ylsulfonyl}pyrrolidine-2-carboxylic acid] | ≥ 50%
13 | CSc1nccc(NS(=O)(=O)c2cc(Nc3ccc(F)cc3C)c(C(=O)N3CCC(c4ccc(F)cc4)CC3)cn2)n1 [Compound 150, 4-(4-fluoro-2-methylphenylamino)-5-[4-(4-fluorophenyl)piperidine-1-carbonyl]-N-[2-(methylthio)pyrimidin-4-yl]pyridine-2-sulfonamide] | ≥ 50%
14 | NS(=O)(=O)c1cc(Nc2ccc3c(c2)COC3)c(C(=O)N2CCC(c3ccc(F)cc3)CC2)cn1 [Compound 3, 4-(1,3-dihydroisobenzofuran-5-ylamino)-5-[4-(4-fluorophenyl)piperidine-1-carbonyl]pyridine-2-sulfonamide] | ≥ 50%
15 | COc1ccc(Nc2c(C(=O)N3CCC(c4ccc(F)cc4)CC3)cnc(S(N)(=O)=O)c2Cl)c(F)c1 [Compound 30, 3-chloro-4-(2-fluoro-4-methoxyphenylamino)-5-[4-(4-fluorophenyl)piperidine-1-carbonyl]pyridine-2-sulfonamide] | ≥ 50%
16 | COC1(c2ccc(F)cc2)CCN(C(=O)c2cnc(S(N)(=O)=O)c(Cl)c2NC2(c3ccccc3)CC2)CC1 [Compound 295, 3-chloro-5-[4-(4-fluorophenyl)-4-methoxypiperidine-1-carbonyl]-4-(1-phenylcyclopropylamino)pyridine-2-sulfonamide] | ≥ 50%
17 | Cc1ccc(Nc2cc(S(N)(=O)=O)ncc2C(=O)N2CCC(c3ccc(F)cc3)CC2)cc1Cl [Compound 79, 4-(3-chloro-4-methylphenylamino)-5-[4-(4-fluorophenyl)piperidine-1-carbonyl]pyridine-2-sulfonamide] | ≥ 50%
18 | COc1ccc(Nc2c(C(=O)N3CCC(c4ccc(F)cc4)CC3)cnc(S(N)(=O)=O)c2Cl)cc1 [Compound 29, 3-chloro-5-[4-(4-fluorophenyl)piperidine-1-carbonyl]-4-(4-methoxyphenylamino)pyridine-2-sulfonamide] | ≥ 50%
19 | Cc1ccc(Nc2cc(S(N)(=O)=O)ncc2C(=O)N2CCC(c3ccc(F)cc3)CC2)cc1 [Compound 98, 5-[4-(4-fluorophenyl)piperidine-1-carbonyl]-4-(p-tolylamino)pyridine-2-sulfonamide] | ≥ 50%
20 | Cc1cc(F)ccc1Nc1cc(S(N)(=O)=O)ncc1C(=O)N1CCC(c2ccc(F)cc2)CC1 [Compound 2, 4-(4-fluoro-2-methylphenylamino)-5-[4-(4-fluorophenyl)piperidine-1-carbonyl]pyridine-2-sulfonamide] | ≥ 50%
21 | Cc1cc(Nc2cc(S(N)(=O)=O)ncc2C(=O)N2CCC(c3ccc(F)cc3)CC2)c(Cl)cc1Cl [Compound 51, 4-(2,4-dichloro-5-methylphenylamino)-5-[4-(4-fluorophenyl)piperidine-1-carbonyl]pyridine-2-sulfonamide] | ≥ 50%
22 | Cc1cc(F)ccc1Nc1c(C(=O)N2CCC(c3ccc(F)cc3)CC2)cnc(S(=O)(=O)n2ccc3ncccc32)c1Cl [Compound 192, [6-(1H-pyrrolo[3,2-b]pyridin-1-ylsulfonyl)-5-chloro-4-(4-fluoro-2-methylphenylamino)pyridin-3-yl][4-(4-fluorophenyl)piperidin-1-yl]methanone] | ≥ 50%
23 | COc1ccc(Nc2cc(S(N)(=O)=O)ncc2C(=O)N2CCC(c3ccc(F)cc3)CC2)cc1C(F)(F)F [Compound 89, 5-[4-(4-fluorophenyl)piperidine-1-carbonyl]-4-[4-methoxy-3-(trifluoromethyl)phenylamino]pyridine-2-sulfonamide] | ≥ 50%
24 | Cc1c(S(=O)(=O)Nc2ccon2)ncc(C(=O)N2CCC(c3ccc(F)cc3)CC2)c1Nc1ccc(Cl)c(Cl)c1 [Compound 279, 4-(3,4-dichlorophenylamino)-5-[4-(4-fluorophenyl)piperidine-1-carbonyl]-N-(isoxazol-3-yl)-3-methylpyridine-2-sulfonamide] | ≥ 50%
25 | Cc1ccc(Oc2c(C(=O)N3CCC(c4ccc(F)cc4)CC3)cnc(S(N)(=O)=O)c2C)cc1 [Compound 289, 5-[4-(4-fluorophenyl)piperidine-1-carbonyl]-3-methyl-4-(p-tolyloxy)pyridine-2-sulfonamide] | ≥ 50%
26 | NS(=O)(=O)c1ncc(C(=O)N2CCC(c3ccc(F)cc3)CC2)c(Oc2cccc(F)c2)c1Cl [Compound 238, 3-chloro-4-(3-fluorophenoxy)-5-[4-(4-fluorophenyl)piperidine-1-carbonyl]pyridine-2-sulfonamide] | ≥ 50%
27 | Cc1ncc(Nc2c(C(=O)N3CCC(c4ccc(F)cc4)CC3)cnc(S(N)(=O)=O)c2Cl)c(C)n1 [Compound 219, 3-chloro-4-(2,4-dimethylpyrimidin-5-ylamino)-5-[4-(4-fluorophenyl)piperidine-1-carbonyl]pyridine-2-sulfonamide] | ≥ 50%
28 | Cc1ccccc1Nc1c(C(=O)N2CCC3(CC2)COc2ccccc23)cnc(S(N)(=O)=O)c1C [Compound 305, 3-methyl-5-(2H-spiro[benzofuran-3,4′-piperidin]-1′-ylcarbonyl)-4-(o-tolylamino)pyridine-2-sulfonamide] | ≥ 50%
29 | Cc1cc(C)cc(Nc2cc(S(N)(=O)=O)ncc2C(=O)N2CCC(c3ccc(F)cc3)CC2)c1 [Compound 110, 4-(3,5-dimethylphenylamino)-5-[4-(4-fluorophenyl)piperidine-1-carbonyl]pyridine-2-sulfonamide] | ≥ 50%
